In brackets after ≈: the same amount, converted by molar mass. Where two headings read alike, the source gives them in different places.
What was measured:
[1] = Acute toxicity in mice (LD50); assay type: in vivo; conditions: ddY male mice, suspended in 5% Arabic gum solution, observed for 7 days; for LD50 at 168 h: mouse, in vivo
Method: Experimental Example 7: Acute Toxicity in Mice
Each compound of the invention was suspended in 5% Arabic gum solution and given orally (p.o.) or intraperitoneally (i.p.) to groups of ten ddY male mice weighed from 24 to 26 g at the dosage volume of 10 ml/kg. […] LD50 was determined according to the method of Wilcoxon and Litchfield.

influenza virus B/GL = experiment: animal or person; assay type: in vivo, mice; conditions: for responders at 100 mg/kg / responders at 300 mg/kg / responders at 30 mg/kg: unidentified influenza virus, in Mus musculus, po, 360 h, read-out: Survival rate; for survival rates of the treated groups as compared with the control: result in words, Table 7
influenza virus A/WSN = experiment: animal or person; assay type: in vivo, mice; conditions: in Mus musculus, 360 h, read-out: Survival rate
coxsackie virus B1 = tested on: coxsackie virus B1; design: species or system mice; conditions: mouse, in vivo, po
[2] = tested on: parainfluenza virus type 3; design: species or system mice; conditions: mouse, in vivo, po
influenza A0 virus = experiment: animal or person; assay type: in vivo, mice; conditions: for protective action against death due to the infection: result in words, Tables 3 and 4
Influenza B = experiment: microbe, parasite or virus in culture; assay type: cell-based
Influenza A0 = experiment: microbe, parasite or virus in culture; assay type: cell-based; conditions: virus A = Influenza A0, MDCK, Vero and HEL cells, 2 or 3 days
ECHO = experiment: microbe, parasite or virus in culture; assay type: cell-based
Rhino = experiment: microbe, parasite or virus in culture; assay type: cell-based
Influenza A1 = experiment: microbe, parasite or virus in culture; assay type: cell-based
Coxsackie Type B5 = experiment: microbe, parasite or virus in culture; assay type: cell-based; conditions: virus G = Coxsackie Type B5
Parainfluenza Type 3 = experiment: microbe, parasite or virus in culture; assay type: cell-based; conditions: virus E = Parainfluenza Type 3
[3] = ip, i.p., read-out: LD50 value, Intraperitoneal administration
[4] = po, p.o., read-out: LD50 value, Oral administration
[5] = Mus musculus, 360 h, oral, twice a day for 14 days, survivors at 15th day, read-out: Survival rate
[6] = Mus musculus, ip, 360 h, intraperitoneal, twice a day for 14 days, survivors at 15th day, read-out: Survival rate

Compound | responders at 100 mg/kg (influenza virus B/GL) | responders at 300 mg/kg (influenza virus B/GL) | LD50 at 168 h [1, 3] | LD50 at 168 h [1, 4] | responders at 300 mg/kg (influenza A0 virus; [5]) | responders at 100 mg/kg (influenza A0 virus; [6]) | MIC (Influenza B) | MIC (Influenza A0) | MIC (ECHO) | MIC (Rhino) | MIC (Influenza A1) | MIC (Coxsackie Type B5) | MIC (Parainfluenza Type 3) | also measured
CC(C)OC(=O)c1ccc(Br)c(S(N)(=O)=O)c1 [Compound 29] | 30% | 40% | – | – | – | – | – | – | – | – | – | – | – | LD50 value, Intraperitoneal administration ([1]; i.p.): >1,000 mg/kg; LD50 value, Oral administration ([1]; p.o.): >3,000 mg/kg
CCCOC(=O)c1cc(S(N)(=O)=O)c(Cl)cc1Cl [Compound 33] | 40% | 50% | > 1000 mg/kg | > 3000 mg/kg | – | – | – | – | – | – | – | – | – | responders at 30 mg/kg (influenza virus A/WSN; ip): 40%; responders at 100 mg/kg (influenza virus A/WSN; ip): 50%; responders at 100 mg/kg (influenza virus A/WSN; po): 50%; responders at 300 mg/kg (influenza virus A/WSN; po): 60%
CCCCOC(=O)c1cc(S(N)(=O)=O)c(Cl)cc1Cl [Compound 35] | 60% | – | > 1000 mg/kg | > 3000 mg/kg | – | – | – | – | – | – | – | – | – | Survival rate (coxsackie virus B1; 300 mg/kg): 40%; Survival rate (coxsackie virus B1; 1000 mg/kg): 80%; Survival rate ([2]; 30 mg/kg): 30%; Survival rate ([2]; 100 mg/kg): 60%; responders at 30 mg/kg (influenza virus A/WSN; po): 40%; responders at 100 mg/kg (influenza virus A/WSN; po): 60%; survival rates of the treated groups as compared with the control (influenza virus B/GL): extremely excellent activity; responders at 30 mg/kg (influenza virus B/GL): 40%
NC(=O)NNS(=O)(=O)c1cc(C(=O)O)c(Cl)cc1Cl [Compound 23] | – | – | > 1000 mg/kg | > 3000 mg/kg | 40% | 40% | 300 µg/mL (≈ 914 µM) | 100 µg/mL (≈ 305 µM) | 300 µg/mL (≈ 914 µM) | 300 µg/mL (≈ 914 µM) | 300 µg/mL (≈ 914 µM) | 300 µg/mL (≈ 914 µM) | 100 µg/mL (≈ 305 µM) | –
NS(=O)(=O)c1cc(C(=O)O)c(Br)cc1Cl [Compound 18] | – | – | > 1000 mg/kg | > 3000 mg/kg | 70% | 70% | 300 µg/mL (≈ 954 µM) | 30 µg/mL (≈ 95.4 µM) | 3 µg/mL (≈ 9.54 µM) | 300 µg/mL (≈ 954 µM) | 300 µg/mL (≈ 954 µM) | 30 µg/mL (≈ 95.4 µM) | 300 µg/mL (≈ 954 µM) | responders at 100 mg/kg (influenza A0 virus; [5]): 50%; responders at 30 mg/kg (influenza A0 virus; [6]): 50%; protective action against death due to the infection (influenza A0 virus): extremely excellent activity
NS(=O)(=O)c1ccc(Cl)cc1C(=O)O [Compound 27] | – | – | > 1000 mg/kg | > 3000 mg/kg | 40% | 40% | 100 µg/mL (≈ 424 µM) | 30 µg/mL (≈ 127 µM) | 300 µg/mL (≈ 1270 µM) | 100 µg/mL (≈ 424 µM) | 300 µg/mL (≈ 1270 µM) | 300 µg/mL (≈ 1270 µM) | 300 µg/mL (≈ 1270 µM) | –
N=C(N)NS(=O)(=O)c1cc(C(=O)O)c(Cl)cc1Cl [Compound 21] | – | – | 987 mg/kg | > 3000 mg/kg | 50% | 40% | 300 µg/mL (≈ 961 µM) | 100 µg/mL (≈ 320 µM) | 300 µg/mL (≈ 961 µM) | 100 µg/mL (≈ 320 µM) | 300 µg/mL (≈ 961 µM) | 300 µg/mL (≈ 961 µM) | 300 µg/mL (≈ 961 µM) | –
NC(=O)C(=O)NNS(=O)(=O)c1cc(C(=O)O)c(Cl)cc1Cl [Compound 24] | – | – | > 1000 mg/kg | > 3000 mg/kg | 50% | 40% | 300 µg/mL (≈ 842 µM) | 100 µg/mL (≈ 281 µM) | 300 µg/mL (≈ 842 µM) | 100 µg/mL (≈ 281 µM) | 300 µg/mL (≈ 842 µM) | 300 µg/mL (≈ 842 µM) | 300 µg/mL (≈ 842 µM) | –
COC(=O)c1cc(S(N)(=O)=O)c(Cl)cc1Cl [Compound 31] | 40% | 50% | > 1000 mg/kg | > 3000 mg/kg | – | – | – | – | – | – | – | – | – | responders at 100 mg/kg (influenza virus A/WSN; po): 40%; responders at 300 mg/kg (influenza virus A/WSN; po): 50%
NS(=O)(=O)c1cc(C(=O)O)c(F)cc1Cl [Compound 16] | – | – | > 1000 mg/kg | > 3000 mg/kg | 50% | 50% | 300 µg/mL (≈ 1180 µM) | 30 µg/mL (≈ 118 µM) | 300 µg/mL (≈ 1180 µM) | 300 µg/mL (≈ 1180 µM) | 300 µg/mL (≈ 1180 µM) | 30 µg/mL (≈ 118 µM) | 300 µg/mL (≈ 1180 µM) | –
NS(=O)(=O)c1cc(C(=O)O)cc(Cl)c1Cl [Compound 20] | – | – | > 1000 mg/kg | > 3000 mg/kg | 80% | 70% | 100 µg/mL (≈ 370 µM) | 10 µg/mL (≈ 37 µM) | 100 µg/mL (≈ 370 µM) | 30 µg/mL (≈ 111 µM) | 100 µg/mL (≈ 370 µM) | 300 µg/mL (≈ 1110 µM) | 30 µg/mL (≈ 111 µM) | responders at 30 mg/kg (influenza A0 virus; [5]): 40%; responders at 100 mg/kg (influenza A0 virus; [5]): 60%; responders at 10 mg/kg (influenza A0 virus; Mus musculus, ip, 360 h, intraperitoneal, 10 mg/kg, twice a day for 14 days, survivors at 15th day, read-out: Survival rate): 40%; responders at 30 mg/kg (influenza A0 virus; [6]): 60%; protective action against death due to the infection (influenza A0 virus): extremely excellent activity
CONS(=O)(=O)c1cc(C(=O)O)ccc1Cl [Compound 4] | – | – | > 1000 mg/kg | > 3000 mg/kg | 40% | 50% | 100 µg/mL (≈ 376 µM) | 30 µg/mL (≈ 113 µM) | 300 µg/mL (≈ 1130 µM) | 300 µg/mL (≈ 1130 µM) | 300 µg/mL (≈ 1130 µM) | 300 µg/mL (≈ 1130 µM) | 300 µg/mL (≈ 1130 µM) | –
COC(=O)c1cc(S(N)(=O)=O)c(Cl)cc1F [Compound 41] | 30% | 50% | > 1000 mg/kg | > 3000 mg/kg | – | – | – | – | – | – | – | – | – | responders at 30 mg/kg (influenza virus A/WSN; ip): 30%; responders at 100 mg/kg (influenza virus A/WSN; ip): 50%
O=C(O)c1ccc(Cl)c(S(=O)(=O)NCCO)c1 [Compound 5] | – | – | > 1000 mg/kg | > 3000 mg/kg | 50% | 40% | 300 µg/mL (≈ 1070 µM) | 30 µg/mL (≈ 107 µM) | 300 µg/mL (≈ 1070 µM) | 300 µg/mL (≈ 1070 µM) | 300 µg/mL (≈ 1070 µM) | 300 µg/mL (≈ 1070 µM) | 100 µg/mL (≈ 358 µM) | –
CCCCOC(=O)c1ccc(Br)c(S(N)(=O)=O)c1 [Compound 30] | – | 70% | – | – | – | – | – | – | – | – | – | – | – | LD50 value, Intraperitoneal administration ([1]; i.p.): >1,000 mg/kg; LD50 value, Oral administration ([1]; p.o.): >3,000 mg/kg; Survival rate (coxsackie virus B1; 300 mg/kg): 40%; Survival rate (coxsackie virus B1; 1000 mg/kg): 70%; Survival rate ([2]; 30 mg/kg): 40%; Survival rate ([2]; 100 mg/kg): 60%; survival rates of the treated groups as compared with the control (influenza virus B/GL): extremely excellent activity; responders at 30 mg/kg (influenza virus B/GL): 60%
O=C(O)c1ccc(Cl)c(S(=O)(=O)NNc2ccc(Cl)nn2)c1 [Compound 10] | – | – | > 1000 mg/kg | > 3000 mg/kg | 40% | 40% | 300 µg/mL (≈ 826 µM) | 30 µg/mL (≈ 82.6 µM) | 100 µg/mL (≈ 275 µM) | 300 µg/mL (≈ 826 µM) | 300 µg/mL (≈ 826 µM) | 300 µg/mL (≈ 826 µM) | 300 µg/mL (≈ 826 µM) | –
